Data published in patent publication US10669545B2, “Tumor cell malignant transformation suppressor and anti-tumor agent” (JAPAN SCIENCE AND TECHNOLOGY AGENCY, priority 2015, dated 2020).

How the values were obtained:
[1] = test system: phosphorylated FAK (pFAK); test: Western blotting of phosphorylated FAK; format: cell-based, human; settings: siRNA-transfected cells vs siNeg#1; not shown
Description: Because phosphorylation of focal adhesion kinase (FAK), which is activated at Focal adhesion, has been associated with melanoma malignancy (refer to NPL 19), FAK change by ZIC5 was examined. Furthermore, focusing on Integrin, alpha 6 (ITGA6) and platelet-derived growth factor D (PDGFD) among the Focal adhesion-related genes in the altered genes by Zic5 knockdown, change in cells was examined. Specifically, a level of phosphorylated FAK (pFAK), total FAK (FAK), ITGA6, pro-PDGFD, and β-actin in A375 cells transfected with siZIC5 or siNeg was assessed by western blotting. Western blotting was performed in the same manner as above except that anti-pFAK antibody (manufactured by Signalway Antibody), anti-FAK antibody (manufactured by Acris), anti-β-actin antibody (manufactured by Sigma), anti-ITGA6 antibody (manufactured by GeneTex), and anti-PDGFD antibody (manufactured by Santa Cruz) were used.

[2] = test system: A375 cells; test: Cell proliferation / cell number count, A375 cells; format: cell-based, human
Description: In cell proliferation assay, A375 cells and SK-MEL-28 cells transfected with siZIC5#1, siZIC5#2, siNeg#1, or siNeg#2 described in Table 2 in the same manner as Example 1 were plated at 1,000 to 2,000 cells/well in 96-well plates. The number of cells transfected with each siRNA was measured over time. Regarding counting the number of cells, cell nuclei were stained with Hoechst 33342 (manufactured by Dojindo, Kumamoto, Japan), and the total cell number in each well was counted by using an IN Cell Analyzer 2000 (manufactured by GE Healthcare, Piscataway, N.J.).
Furthermore, a cell cycle of each cell was examined with respect to A375 cells. An average value (SD) of percentages (%) of cells in G1 population, S population, and G2M population of each cell is shown in Table 9. […] As a result, percentages of cells in the S population and G2M population of A375 cells were reduced by PDGFD gene knockdown.
In addition, the number of cells of A375 cells transfected with siPDGFD#1, siPDGFD#2, or siNeg#1 was successively counted. The statistical difference was determined using the Dunnett's multiple comparisons of means test (**: P<0.01, *: P<0.05).
The result of a relative cell number (n=3) in which the number of cells of the cells treated with rat IgG was set to 1 is shown in FIG. 28. […]

siPDGFD#1: siRNA for PDGFD gene; targeting sequence CAGGAATTACTCGGTCAATAT (SEQ. NO. 28) (listed as DNA, chemistry not given here)
FAK phosphorylation (pFAK level) [1]: reduced FAK phosphorylation
relative cell number (siNeg#1 set to 1), cell proliferation rate [2]: decrease in cell proliferation rate
